Results taken from patent US8124743B2, “Purification of a bivalently active antibody using a non-chromatographic method” (President and Fellows of Harvard College, priority 2006, dated 2012).
Values joined by “and” are separate entries in the source; they are usually repeats but may differ in a detail not shown here. Equal values may be shown once. Read-outs that look alike come from different tables or passages of the source.

Legend:
[1] = target: rat anti-2,4-dinitrophenyl IgG (IgG^DNP, clone LO-DNP-2); experiment: Monovalent dissociation constant of hapten for anti-2,4-DNP IgG, method not given; assay type: binding; conditions: read-out: monovalent Kd (Kd^affinity) of hapten for IgG^DNP
[2] = test system: anti-2,4-DNP IgG (clone LO-DNP-2); experiment: SE-HPLC of formation and dissociation of cyclic IgG aggregates; assay type: biochemical, rat; conditions: for dissociation of IgG aggregates by excess monovalent hapten: about 1 mM monovalent hapten, SE-HPLC
Procedure: We used size-exclusion chromatography (SE-HPLC) to follow the purification process. This analytical technique has the advantage that we can resolve monomeric, dimeric, trimeric, and tetrameric antibody aggregates on the column. It has the disadvantage that these aggregates must be kinetically stable (in the absence of competing monovalent hapten) over the time required to carry out a separation (retention time, tr˜15 min).
Validation of Size-Exclusion Chromatography (SE-HPLC) to Examine Aggregates of IgG. Size-exclusion chromatography (SE-HPLC) can resolve the cyclic aggregates of antibodies from each other and from monomeric IgG (FIG. 6). The commercially available purified IgG gave predominantly one peak by SE-HPLC (FIG. 6a) at a retention time (˜15.6 min) consistent with the size of monomeric IgG (˜150 kDa) based on a molecular weight calibration plot (FIG. 3). We formed aggregates in >90% conversion by incubating IgG (2 μM) with 5-10 equivalents of bi and trivalent molecules in chart 1 for 12 hours. […] These antibody aggregates dissociated rapidly (<1 min) in the presence of excess monovalent hapten (6) (1 μM anti-2,4-DNP; 1 μM 1; 1000 μM 6) (FIG. 6c).

[3] = target: IgG from clone (LO-DNP-2), anti-DNP; experiment: Fluorescence titration (tryptophan quenching) for the monovalent dissociation constant; assay type: binding, rat; conditions: read-out: monovalent dissociation constant (Kd^affinity)
Procedure: Determination of dissociation constant of antibody and 2,4-DNP. The binding of DNP derivatives to anti-DNP quenches the fluorescence of tryptophan residues of the antibody. We conducted a fluorescence titration to determine the monovalent dissociation constant (Kd^affinity) of the IgG from clone (LO-DNP-2) for Ac2DNP-Lys, and obtained a value of 0.40±0.08 nM.

Molecule	Kd [1]	dissociation of IgG aggregates by excess monovalent hapten [2]	also measured
2,4-dinitrophenyl [2,4-DNP]			Kd ([1]; listed as DNP): 8 nM and ~8 nM
4-nitrophenyl [4-NP]	500 nM and ~500 nM		
NCCCC[C@H](Nc1ccc([N+](=O)[O-])cc1[N+](=O)[O-])C(=O)O [compound 6, 2,4-dinitrophenyl lysine]		completely dissociated	time for dissociation of antibody aggregates by excess monovalent hapten ([2]; 1 μM anti-2,4-DNP, 1 μM 1, 1000 μM 6): < 1 min
O=[N+]([O-])c1ccc(OC2O[C@H](CO)[C@@H](O)[C@H](O)[C@H]2O)cc1 (stereo partly shown) [compound 7, 4-nitrophenylglucose]	~500 nM	completely dissociated	
Ac2DNP-Lys			Kd [3]: 0.4 ± 0.08 nM
